Values after ≈ are worked out from the molar mass of the structure shown.
Legend:
Assay type in all cases: cell-based
[1] = system: human umbilical-vein endothelial cells (HUVEC); assay: Tube Formation Assay (TFA) Test, HUVEC in collagen gel; conditions: 20 hours, 40% or less judged remarkable; for inhibition at 1 µg/mL / inhibition at 10 µg/mL: Homo sapiens, HUVEC, 20 h, read-out: TFA (inhibition rate, %)
Outline: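 HUVEC (7th subculture, 1×10^5 cells/ml) attached to collagen gel for 2 h at 37 °C, given sample and overlaid with collagen, then cultured 20 h at 37 °C, 5% CO2 in M-199 with 20% FCS, 30 ng/ml b-FGF and 0.1 μM PMA. Tube length measured by image analysis; % inhibition relative to positive and negative controls.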

[2] = system: human umbilical-vein endothelial cells (HUVEC); assay: Cell Proliferation Assay (CPA) Test, HUVEC, MTT; conditions: M199 (2+) medium; for IC50: Homo sapiens, read-out: CPA (IC50 μg/ml)
Method: (§1) Furthermore, the sample liquids of compounds used in the CPA and CMA tests were prepared in the manner described below. Firstly, after weighing out each compound, a calculated amount of DMSO was added. After dissolving the compound in the DMSO, phosphate buffered physiological saline (PBS (-)) was added to bring the sample concentration to 1 mg/ml in PBS (-). The amount of DMSO used to dissolve the compounds was adjusted in advance to that the concentration of DMSO at that time was 5%. The resulting liquids were diluted 10-fold with 5% DMSO-PBS (-) solution to prepare sample solutions having a concentration of 0.1 mg/ml. In the TFA test, 320 μl of the prepared 1 mg/ml sample solutions were removed followed by addition of 680 μl of PBS (-) to prepare samples having a concentration of […]. Moreover, 100 μl of this solution was removed followed by addition of 900 μl of PBS (-) to dilute 10-fold and prepare samples having a concentration of 1 μg/ml. P [Cell Proliferation Assay (CPA) Test]
100 μl of the 7th subculture obtained from first generation human umbilical-vein endothelial cells (HUVEC) were disseminated in the wells (N=3) of a 96-well plate (Iwaki, Cat. #4860-010) at a cell concentration of 5×10^4 cells/ml. M-199 medium containing +20% FCS, 10 ng/ml of b-FGF and 10 ng/ml of EGF (abbreviated as "M199 (2+)") was used for the medium.
After culturing for 24 hours at 37° C. in the presence of 5% CO2 under the above conditions, 20 μl/well of MTT solution (solution containing 5 mg/ml of PBS (-)) were added to the control well followed by accurately culturing for 4 hours at 37° C. in the presence of 5% CO2. Following completion of culturing, 100 μl/well of a stop solution (0.001 N aqueous HCl solution containing 10% SDS) were added. On the other hand, 10 μl/well of sample solutions at concentrations of 1 mg/ml and 0.1 mg/ml were added to the other wells.
After culturing for 24 hours at 37° C. in the presence of 5% CO2, the medium was replaced and 100 μl/well of M199 (2+) were added. The samples were also replaced in each well at this time.
Moreover, after additionally culturing for 48 hours at 37° C. in the presence of 5% CO2, 20 μl/well of MTT solution were added to the wells containing sample and the control well followed by accurately culturing for 4 hours at 37° C. and adding 100 μl/well of stop solution.

[3] = system: human umbilical-vein endothelial cells (HUVEC); assay: Cell Migration Assay (CMA) Test, HUVEC (% relative to control); conditions: 24 hours, 60% or less = remarkable inhibition; for activity at 1 µg/mL / activity at 10 µg/mL: Homo sapiens, HUVEC, read-out: CMA (% relative to control)
Method: as §1
After disseminating the 7th subculture of HUVEC obtained from the first generation in the same manner as above at 4 ml/well (3.0×10^5 cells/well) in a collagen-coated 6-well plate (NUNC), the cells were cultured for 48 hours at 37° C. in the presence of 5% CO2. The cells reached nearly a completely confluent state as a result of this culturing.
A double-edged, disposable razor blade was divided into four sections, of which one of those sections was pinched between a pair of forceps. Using this piece of razor blade, the cell surface in the above confluent state was scraped off. Two areas of the cell surface were scraped off in each well.
After washing the surface of the wells from which the cells had been scraped off with medium, 4.0 ml of fresh M199 (2+) medium were added followed by addition of 40 μl or 4 μl of sample solution (1 mg/ml). The cells were cultured for 24 hours at 37° C. in the presence of 5% CO2. After discarding the culture liquid, the cells were fixed for 30 minutes with methanol. Next, after staining the cells for 4 hours with Giemsa stain, the plates were washed with tap water and air dried.
Measurement of cell migration was performed by microscopically counting the number of cells that had newly migrated within the range of a 1 mm×1 mm block. […] The total number of cells counted in blocks 1 through 5 were then totaled to determine the overall total number of cells. Four fields were counted for each well.
Evaluation was performed determining the cell migration (%) according to the following formula.
Cell migration rate=number of migrating cells to which sample was added×100/number of migrating of control (+)
Control (+) indicates the number of migrating cells in the control well containing M199 (2+).

Compound | inhibition at 1 µg/mL ([1]; 1 μg/ml) [%] | inhibition at 10 µg/mL ([1]; 10 μg/ml) [%] | IC50 [2] [µg/mL] | activity at 1 µg/mL ([3]; 1 μg/ml) [%] | activity at 10 µg/mL ([3]; 10 μg/ml) [%] | TFA (inhibition rate, %) ([1]; 1 μg/ml) [%] | TFA (inhibition rate, %) ([1]; 10 μg/ml) [%] | CPA (IC50 μg/ml) [2] [µg/mL] | CMA (% relative to control) ([3]; 1 μg/ml) [%] | CMA (% relative to control) ([3]; 10 μg/ml) [%]
COC(=O)C1=CO[C@@H](OC(=O)N2CCOCC2)[C@@H]2[C@@H]1C[C@@H]1O[C@]21C [compound 38, (1S,4aS,6S,7R,7aR)-6,7-epoxy-1,4a,5,6,7,7a-hexahydro-7-methyl-1-(morpholinocarbonyloxy) cyclopenta [c] pyrane-4-carboxylic acid methylester] | 15.3 | -10 | > 100 | 92.3 | 61.8 | – | – | – | – | –
COC(=O)C1=CO[C@@H](OC(=O)NC(C)C)[C@@H]2[C@@H]1C[C@@H]1O[C@]21C [compound 34, (1S,4aS,6S,7R,7aR)-6,7-epoxy-1,4a,5,6,7,7a-hexahydro-1-(isopropylcarbamoyloxy)-7-methylcyclopenta [c] pyrane-4-carboxylic acid methylester] | 16.8 | -14.1 | > 100 | 98.2 | 95.2 | – | – | – | – | –
COC(=O)C1=CO[C@H](OC(=O)NC(=O)c2ccccc2)C2[C@@H]1C[C@@H]1O[C@]21C (stereo in doubt) [compound 42, (1R,4aS,6S,7R,7aR)-1-(benzoylcarbamoyloxy)-6,7-epoxy-1,4a,5,6,7,7a-hexahydro-7-methylcyclopenta [c] pyrane-4-carboxylic acid methylester] | 12.5 | 18.7 | > 100 | 90.4 | 70.6 | – | – | – | – | –
CNC(=O)O[C@@H]1OCC(C(=O)OC)[C@H]2C[C@@H]3O[C@]3(C)C12 (stereo in doubt) [Compound 55, (1S,4R,4aS,6S,7R,7aR)-6,7-epoxy-7-methyl-1-(methylcarbamoyloxy)-1,3,4,4a,5,6,7,7a-octahydrocyclopenta [c] pyrane-4-carboxylic acid methylester] | 13.9 | 3.8 | > 100 | 97.8 | 91.8 | – | – | – | – | –
CCCCCCNC(=O)C1=COC(OC(=O)NC)C2C1CC1OC12C [compound 17, (1S,4aS,6S,7R,7aR)-6,7-epoxy-1,4a5 6,7,7a-hexahydro-7-methyl-1-(methylcarbamoyloxy) cyclopenta [c]-pyrane-4-carboxylic acid n-hexylamide] | 19 | 23.4 | 69.1 (≈ 196 µM) | 94.4 | 114 | – | – | – | – | –
COC(=O)C1=CO[C@@H](OC(=O)Nc2ccc(F)cc2)[C@@H]2[C@@H]1C[C@@H]1O[C@]21C [compound 36, (1S,4aS,6S,7R,7aR)-6,7-epoxy-1,4a,5,6,7,7a-hexahydro-1-[(4-fluorophenyl)carbamoyloxy]-7-methylcyclopenta [c] pyrane-4-carboxylic acid methylester] | 6.9 | -18.3 | > 100 | 95 | 99.7 | – | – | – | – | –
CNC(=O)OC[C@@H]1[C@H](C)CC[C@@H]1C1(COC(=O)NC)CO1 (stereo partly drawn) [Compound 58, 2-[(1S,2R,3R)-2-(methylcarbamoyloxy)methyl-3-methylcyclopento-1-yl]-2,3-epoxy-propane-1-methylcarbamate] | – | – | – | – | – | 20.6 | 22.3 | > 100.0 | 121.6 | 97.0
CNC(=O)O[C@@H]1OC=C(C(=O)OC)[C@H]2CC[C@]3(CO3)[C@@H]12 [compound 53, (1S,4aS,7S,7aR)-1-(methylcarbamoyloxy)-1,4a,5,6,7,7a-hexahydrospiro [cyclopenta [c]pyrane-7(1H),2'-oxirane]-4-carboxylic acid methylester] | 26 | 9.7 | > 100 | 100 | 94.1 | – | – | – | – | –
CNC(=O)OC1OC=C(C(=O)OCc2ccco2)C2CC3OC3(C)C12 [compound 10, (1S,4aS,6S,7R,7aR)-6,7-epoxy-1,4a,5,6,7,7a-hexahydro-7-methyl-1-(methylcarbamoyloxy) cyclopenta [c]-pyrane-4-carboxy-lic acid furfurylester] | 28.6 | 27.7 | 93.3 (≈ 267 µM) | 101 | 103 | – | – | – | – | –
CNC(=O)O[C@@H]1OC=C(C(=O)OC)[C@H]2C[C@@H]3OC3(COC)C12 (stereo in doubt) [compound 49, (1S,4aS,6S,7R,7aR)-6,7-epoxy-7-(methoxymethyl)-1-(methylcarbamoyloxy)-1,4a,5,6,7,7a-hexahydrocyclopenta [c] pyrane-4-carboxylic acid methylester] | 21.2 | 12.8 | > 100 | 102 | 104 | – | – | – | – | –
CNC(=O)O[C@@H]1OC=C(C(=O)OC2CCCCC2)[C@H]2C[C@@H]3O[C@]3(C)[C@H]12 [compound 14, (1S,4aS,6S,7R,7aR)-6,7-epoxy-1,4a,5,6,7,7a-hexahydro-7-methyl-1-(methylcarbamoyloxy) cyclopenta [c]-pyrane-4-carboxylic acid cyclohexylester] | 38.2 | 48.7 | > 100 | 99.4 | 102 | – | – | – | – | –
CNC(=O)O[C@@H]1OC=C(C(=O)OC/C=C(\C)CCC=C(C)C)[C@H]2C[C@@H]3O[C@]3(C)[C@H]12 [compound 6, (1S,4aS,6S,7R,7aR)-6,7-epoxy-1,4a,5,6,7,7a-hexahydro-7-methyl-1-(methylcarbamoyloxy) cyclopenta [c]-pyrane-4-carboxylic acid geranyl ester] | 24.2 | 8.7 | > 100 | 106 | 105 | – | – | – | – | –
CNC(=O)O[C@@H]1OC=C(C(=O)NCc2ccccc2)[C@H]2C[C@@H]3O[C@]3(C)[C@H]12 [compound 27, (1S,4aS,6S,7R,7aR)-6,7-epoxy-1,4a,5,6,7,7a-hexahydro-7-methyl-1-(methylcarbamoyloxy) cyclopenta [c]-pyrane-4-carboxylic acid benzylamide] | 29.1 | 32.7 | > 100 | 94.5 | 103 | – | – | – | – | –
